Test results as given in US12508245B2, “Co-therapies including a metastasis inhibitor” (priority 2017, dated 2025).

How the values were obtained:
[1] = Pharmacokinetic study of Compound A in mice: stability of the plasma samples (LC-MS/MS); assay type: in vitro ADME; conditions: mouse plasma samples, K2 EDTA
Method: Concentrations of Compound A in plasma were determined using high performance liquid chromatography with tandem mass spectrometry (LC MS/MS). All blood samples were transferred into commercial tube containing Potassium (K2) EDTA and processed for plasma. Samples were centrifuged (3000×g for 10 minutes at 2 to 8° C.) within one hour of collection. The assays used a Sciex API 4000 detector and nifedipine as an internal standard. The calibration ranges for Compound A for were 5.00 to 5000 ng/mL. The plasma concentration of Compound A in mice was subjected to a non-compartmental pharmacokinetic analysis by using the Phoenix WinNonlin software (version 6.3, Pharsight, Mountain View, CA). The nominal dose levels and nominal sampling times were used in the calculation of all pharmacokinetic parameters. The linear/log trapezoidal rule was applied in obtaining the PK parameters.

[2] = tested on: MDA-MB-231 tumor cells; assay: Overall survival of NSG mice implanted with MDA-MB-231 tumor cells, combination treatment with chemotherapy; assay type: in vivo, human
Method: Vehicle solvent was given to control mice once a day for 6 days every week. Starting on day 15, doxorubicin hydrochloride (Sigma) (2 mg/kg) and cyclophosphamide monohydrate (Sigma) (60 mg/kg) were given to mice once a week for four weeks. Primary tumors were removed on day 29. Death of mice was used as the endpoint.

[3] = tested on: 4T1 breast tumor cells; assay: Combination treatment with Compound A and immunotherapy, 4T1 tumor-bearing BALB/c mice, overall survival; assay type: in vivo, mouse
Method: Female BALB/c mice (6- to 8-week-old) were purchased from Charles River Laboratories. […] Mol Oncol 10, 966-980 (2016). Starting on day 8 or 22, Compound A was given to mice once every day for 5 days a week by oral gavage at 100 mg/kg per mouse. Tumor-bearing mice were given 10 mg/kg anti-PD-1 and 10 mg/kg anti-CTLA-4 antibodies i.p. on day 11, 13, 15, and 17 as previously described. Kim, K. et al. Eradication of metastatic mouse cancers resistant to immune checkpoint blockade by suppression of myeloid-derived cells. Proc Natl Acad Sci USA 111, 11774-11779 (2014). Control group mice were given control mouse IgG at the same time. Primary tumor volume was calculated as length×width^2×π/6.

[4] = tested on: 4T1 mouse breast tumor cells
Method: Female BALB/c mice (6-8 week old) were purchased from Charles River. 4T1 tumor cells (1×10^5) were injected subcutaneously into the abdominal mammary gland area of mice using 0.1 ml of a single-cell suspension in PBS on Day 0 as previously described. […] Starting on Day 8, when the tumors averaged about ˜4-5 mm in diameter, Compound A or control solvent were given once or twice every day by oral gavage at 10, 30, 100 or 300 mg/kg per mouse until Day 27. On Day 28, the mice were sacrificed. […] Numbers of metastatic 4T1 cells in lungs were determined by the clonogenic assay. In brief, lungs were removed from each mouse, finely minced and digested in 5 ml of enzyme cocktail containing 1×PBS and 1 mg/ml collagenase type IV for 2 hours at 37° C. on a platform rocker. After incubation, samples were filtered through 70-μm nylon cell strainers and washed twice with PBS. Resulting cells were suspended, plated with a series of dilutions in 10 cm tissue culture dishes in DMEM medium containing 60 μM thioguanine for clonogenic growth. As 4T1 tumor cells are resistant to 6-thioguanine, metastasized tumor cells formed foci after 14 days, at which time they were fixed with 4% paraformaldehyde and stained with crystal violet staining solution for counting. […]

[5] = tested on: MDA-MB-231 human breast tumor cells
Method: MDA-MB-231 cells (subclone LM2) (1×10^5) suspended in PBS were injected subcutaneously into the abdominal mammary gland area of mice on day 1 as previously described. […] On the first day of the ninth week, the mice were killed. […] Numbers of metastatic MDA-MB-231 cells in lungs were determined by the clonogenic assay. In brief, lungs were removed from each mouse once sacrificed, finely minced and digested in 5 ml of enzyme cocktail containing 1×PBS and 1 mg/ml collagenase type IV for 2 h at 37° C. on a platform rocker. After incubation, samples were filtered through 70-μm nylon cell strainers and washed twice with PBS. Resulting cells were suspended, plated with a series of dilutions in 10 cm tissue culture dishes in medium containing 2.0 μg/ml puromycin for clonogenic growth. As these MBA-MB-231 tumor cells were stably transfected with the vector pSuper-puro, metastasized tumor cells formed foci after 14 days, at which time they were fixed with 4% paraformaldehyde and stained with crystal violet staining solution for counting.

## Cc1occc1C(=O)Nc1nn(Cc2ccc(C(F)(F)F)cc2)c2ccccc12 [NP-G2-044]
[1]
  stability after freeze-thaw, and during storage, processing and analysis: stable
[2]; NSG mice, MDA-MB-231, primary tumors removed on Day 29, NP-G2-044 started on Day 1, chemotherapy for 4 weeks, death as endpoint (FIG. 2b)
  overall survival of tumor-bearing mice: increases overall survival
[2]; with chemotherapy, NP-G2-044 starting on day 1 or 8 compared with day 15 (FIG. 2d)
  overall survival in the combination therapies, earlier versus late start of NP-G2-044: had better effect than late treatment
[3]; 4T1 tumor-bearing mice, anti-PD-1 and anti-CTLA-4 antibodies, death as endpoint (FIG. 3c)
  overall survival of tumor-bearing mice: increased the overall survival
[3]; NP-G2-044 starting on day 8, with anti-PD-1 and anti-CTLA-4 antibodies (FIG. 3e)
  immunotherapy response (overall survival) in combination therapy, early treatment: boosted the immunotherapy response
[3]; NP-G2-044 starting on day 22, with anti-PD-1 and anti-CTLA-4 antibodies (FIG. 3e)
  immunotherapy response (overall survival) in combination therapy, late treatment: boosted the immunotherapy response
[4]; 4T1 cells implanted into the mammary fat pad (FIG. 1f-g)
  metastasis to the lung, single agent: blocks tumor metastasis
[4]; mouse, in vivo
  tolerability of the dosage regimen: well tolerated with no signs of overt toxicity
[5]; MDA-MB-231 cells implanted into the mammary fat pad, QD or BID (FIG. 1c-e)
  metastasis to the lung, single agent: blocks tumor metastasis
[5]; in vivo
  tolerability of the dosage regimen: well tolerated with no signs of overt toxicity
